# Where two headings read alike, the source gives them in different places.
# Columns and labels:
# Test in all cases: MIC, serial two-fold agar dilution method
# Format in all cases: cell-based
# Salmonella typhi 901 = settings: Salmonella enterica, 20 h, pH 7
# Procedure: (§1) The minimum inhibitory concentrations (MICs) of BU-4726G-A and BU-4726G-B were determined against various bacteria and fungi by the serial two-fold agar dilution method. Nutrient agar medium (Eiken) was used for bacteria and Sabouraud dextrose agar medium (Difco) for fungi.
# (§2) Medium: Nutrient agar (Eiken, pH 7.0)
# (§3) Inoculum size: 10^5 cells/ml
# (§4) Inoculated conditions: 32° C., 20 hours
# [1] = tested on: Pseudomonas aeruginosa A9843 A; settings: A9843A
# Procedure: as §1, §2, §3, §4
# Escherichia coli K12 = settings: Nutrient agar pH 7.0, 10^5 cells/ml, 32° C., 20 hours
# Procedure: as §1, §2, §3, §4
# [2] = tested on: Staphylococcus aureus Smith
# Procedure: as §1, §2, §3, §4
# [3] = tested on: Klebsiella pneumoniae PCI 602
# Procedure: as §1, §2, §3, §4
# [4] = tested on: Staphylococcus aureus A15036(MRSA)
# Procedure: as §1, §2, §3, §4
# [5] = tested on: Micrococcus luteus ATCC 9341
# Procedure: as §1, §2, §3, §4
# [6] = tested on: Streptococcus faecalis A2808; settings: Enterococcus faecalis, A2808, 20 h, pH 7
# Procedure: as §1, §2, §3, §4
# [7] = tested on: Bacillus subtilis ATCC 6633
# Procedure: as §1, §2, §3, §4
# Escherichia coli Juhl = tested on: Escherichia coli Juhl
# Procedure: as §1, §2, §3, §4
# [8] = tested on: Staphylococcus aureus 209P
# Procedure: as §1, §2, §3, §4
# [9] = tested on: Staphylococcus epidermidis 11-1168; settings: 111168, Nutrient agar pH 7.0, 10^5 cells/ml, 32° C., 20 hours
# Procedure: as §1, §2, §3, §4
Structure (SMILES),MIC (Salmonella typhi 901) [mg/L],"MIC ([1]; Pseudomonas aeruginosa, 20 h, pH 7) [mg/L]",MIC (Escherichia coli K12) [mg/L],"MIC ([2]; Staphylococcus aureus, 20 h, pH 7) [mg/L]","MIC ([3]; Klebsiella pneumoniae, PCI602, 20 h, pH 7) [mg/L]","MIC ([4]; Staphylococcus aureus, MRSA, 20 h, pH 7) [mg/L]","MIC ([5]; Micrococcus luteus, ATCC9341, 20 h, pH 7) [mg/L]",MIC [6] [mg/L],"MIC ([7]; Bacillus subtilis, ATCC6633, 20 h, pH 7) [mg/L]","MIC (Escherichia coli Juhl; Escherichia coli, 20 h, pH 7) [mg/L]","MIC ([8]; Staphylococcus aureus, 209P, 20 h, pH 7) [mg/L]","MIC ([1]; Pseudomonas aeruginosa A9843 A, Nutrient agar pH 7.0, 10^5 cells/ml, 32° C., 20 hours, read-out: MIC) [mg/L]",MIC [9] [mg/L],"MIC ([2]; Staphylococcus aureus Smith, Nutrient agar pH 7.0, 10^5 cells/ml, 32° C., 20 hours, read-out: MIC) [mg/L]","MIC ([3]; PCI602, Klebsiella pneumoniae PCI 602, Nutrient agar pH 7.0, 10^5 cells/ml, 32° C., 20 hours, read-out: MIC) [mg/L]","MIC ([4]; Staphylococcus aureus A15036(MRSA), Nutrient agar pH 7.0, 10^5 cells/ml, 32° C., 20 hours, read-out: MIC) [mg/L]","MIC ([5]; ATCC9341, Micrococcus luteus ATCC 9341, Nutrient agar pH 7.0, 10^5 cells/ml, 32° C., 20 hours, read-out: MIC) [mg/L]","MIC ([7]; ATCC6633, Bacillus subtilis ATCC 6633, Nutrient agar pH 7.0, 10^5 cells/ml, 32° C., 20 hours, read-out: MIC) [mg/L]","MIC (Escherichia coli Juhl; Escherichia coli Juhl, Nutrient agar pH 7.0, 10^5 cells/ml, 32° C., 20 hours, read-out: MIC) [mg/L]","MIC ([8]; Staphylococcus aureus 209P, Nutrient agar pH 7.0, 10^5 cells/ml, 32° C., 20 hours, read-out: MIC) [mg/L]"
N[C@@H](C(=O)N[C@@H]1C(=O)N2C(C(=O)O)=C(Cl)CS[C@H]12)c1ccccc1 [Cefaclor],0.2,> 100,0.4,0.4,0.2,25,< 0.05,25,< 0.05,0.4,0.8,,,,,,,,,
NCC[C@H](O)C(=O)N[C@@H]1C[C@H](N)[C@@H](O[C@H]2O[C@H](CN)[C@@H](O)[C@H](O)[C@H]2O)[C@H](O)[C@H]1O[C@H]1O[C@H](CO)[C@@H](O)[C@H](N)[C@H]1O [Amikacin],3.1,,0.8,,,,,50,,,,3.1,50,1.6,0.4,3.1,3.1,0.4,3.1,0.4
